{"source": "patent US7589080B2", "about": "“β-cyclodextrin compositions, and use to prevent transmission of sexually transmitted diseases” (priority 2000, dated 2009)", "format_in_all_cases": "cell-based", "key": {"[1]": {"tested_on": "HIV-1RF chronically infected Jurkat cells", "assay": "Virus precipitation with MAbs after β-cyclodextrin treatment of infected cells", "experimental": "Infected Jurkat cells (3×10^6) were treated with 20 mM hydroxypropyl-β-cyclodextrin (2-OH-βCD; Cyclodextrin Technologies Development, Inc.; Gainesville Fla.) in 3 ml of cRPMI or with cRPMI alone for 1 hr at 37° C. Cells were washed with PBS, then allowed to produce virus in 3 ml of cRPMI at 37° C. for 2 hr. Viral supernatants were clarified through a 0.45 Tm filter, and […] of MAb (10 mg/ml) in 5% NGS-PBS, and the mixture was incubated for 1 hr on ice. Pansorbin (SaC) (50 mg; Calbiochem; San Diego Calif.) was added to the solution and incubated for 20 min on ice. Complexes were washed sequentially with 10X and 1X PBS. Precipitated virus was lysed with […] of 1% Triton X-100 in cRPMI. Lysates were diluted, and p24 was quantitated by standard p24 ELISA.\nThe effects of 2-OH-βCD, a cellular cholesterol efflux inducing molecule, on the incorporation of host molecules into virions also was examined. By removing cholesterol, 2-OH-βCD is believed to partially perturb organized lipid rafts, resulting in dispersal of their components (Ilangumaran and Hoessli, Biochem. J. 335:433-440, 1998)."}, "[2]": {"tested_on": "CD4+ HIV-susceptible target cells", "assay": "Cell viability, growth and function after 2-OH-βCD treatment", "from_the_text": "The role of lipid rafts in the HIV-1 fusion process was examined by treating CD4+HIV-susceptible target cells with 2-OH-βCD to deplete membrane cholesterol and disperse lipid rafts.\nLoss of CXCR function in regulating LFA-1 could also explain the lower binding of HIV-1 to βCD-treated cells observed previously (Liao et al., supra, 2000; Orentas and Hildreth, supra, 1993). […] The ability of βCD treatment of cells to affect control of LFA-1 function by CXCR4 also was examined. Jurkat cells were treated with 2-OH-βCD or medium alone, then were added to the wells of culture plates coated with soluble recombinant ICAM-Ig. SDF-1, a CXCR4-specific chemokine that triggers LFA-1 function, was added to trigger binding of LFA-1 to ICAM-1. Control cells responded to SDF-1 and, as expected, bound very well to ICAM-Ig. […] CXCR4-specific gp120 triggers the same responses through CXCR4 as SDF-1 (Iyengar et al., J. Immunol. 162:6263-6267, 1999).\n(§1) βCD treatment blocks HIV-1 virus infection. HIV-1 can spread in cell cultures without necessarily exerting cytopathic effects. […] To test the effects of cholesterol depletion on HIV-1 infection of primary T cells by free virus, PHA blasts were treated with 10 mM 2-OH-βCD or medium alone, then were exposed to HIV-1 for 2 hr before washing to remove input virus. Viability and growth of the PHA blasts was not affected by treatment with the βCD under the conditions used. P24 release was measured after an addition 6 days in culture. Two primary strains of HIV-1, 97.099 and 97.534, M-tropic (R5) and dual-tropic (X4R5), respectively, were tested.\nThe effects of βCD treatment on HIV infectivity were measured in a sensitive single-cycle infection assay based on a cell line transfected with an LTR-luciferase cassette. […] Quantitative measurements of single round infection are obtained with this assay system (Roos et al., Virology 273:307-315, 2000, which is incorporated herein by reference). Viability of LuSIV cells as determined by trypan blue exclusion and proliferation was not affected by 2-OH-βCD treatment. βCD treatment of LuSIV cells reduced HIV infection by almost 100%, and the effects were readily seen at all viral input levels."}, "CD4": {"tested_on": "CD4", "assay": "Flow cytometry of CD4 surface expression", "experimental": "Flow cytometry was performed as previously described (Orentas and Hildreth, supra, 1993). Briefly, 2×10^5 2-OH-βCD treated or untreated cells in 100 μl PBS containing 5% normal goat serum (NGS) were added to 100 μl of MAb (1-5 μg) and incubated 30 min on ice. In comparative experiments we prefixed the cells with 2% paraformaldehyde in PBS immediately after 2-OH-βCD treatment. Cells were washed with PBS, resuspended in 100 μl of PBS, 5% NGS containing 2 Tg of FITC conjugated-goat anti-mouse IgG (FITC-GAM) and incubated 1 h on ice. Cells were then washed with PBS and fixed with 2% paraformaldehyde followed by analysis on an EPICS Profile II flow cytometer.\nCholesterol depletion also promoted CXCR4 down-modulation by MAb-induced internalization. A possible explanation for the inhibition of syncytium formation by cholesterol depletion as described above is that CD4, CRs, or both are lost from the cell surface, for example, by extrusion from the membrane in vesicles after loss of cholesterol, or they could be internalized. To explore these possibilities, βCD treated cells were examined for expression of HIV receptors by flow cytometry. […] In contrast, cell surface expression of CXCR4 was reduced by 50% or more in all of the cells after 2-OH-βCD treatment (Table 1).\nIn order to determine whether the loss of CXCR4 expression was due to MAb-induced internalization, cells were fixed with 2% paraformaldehyde in PBS immediately after 2-OH-βCD treatment and before staining with MAbs for flow cytometry."}, "[3]": {"tested_on": "HIV-1 primary strain 97.534, dual-tropic (X4R5)", "assay": "Primary virus infection assay, isolate 97.534", "conditions": "PHA blasts treated with 10 mM; p24 after 6 days", "experimental": "Peripheral blood mononuclear cells (PBMCS) were isolated by Ficoll-Hypaque centrifugation from buffy coats obtained from the Johns Hopkins Hemapheresis Center. Cells were stimulated for 3 days with 3 Tg/ml PHA, washed with iRPMI, and treated with 10 mM 2-OH-βCD in cRPMI for 1 hr. Cells were then washed twice with iRPMI and resuspended in cRPMI (1×10^6/ml) supplemented with 50 U/ml IL-2 and containing primary HIV-1 strains at 20 ng/ml p24. Cells were incubated with virus for 24 hr at 37° C. before washing twice with iRPMI. Cells were then resuspended in cRPMI supplemented with 50 U/ml IL-2 and cultured for 6 days at 37° C. Supernatants were collected and p24 was quantitated by standard p24 ELISA.\nas §1"}, "[4]": {"conditions": "infected Jurkat cells treated with 20 mM for 1 hr at 37° C, P<0.05"}}, "data": [{"substance": "2-hydroxypropyl-β-cyclodextrin [2-OH-βCD]", "values": [{"measurement": "Overall cellular release of p24", "setting": "[1]; infected Jurkat cells after treatment", "result": "increased"}, {"measurement": "CD45 capture of HIV-1", "setting": "[1]; infected Jurkat cells treated with 20 mM for 1 hr at 37° C", "result": "remained mostly unaffected"}, {"measurement": "Capture of HIV-1 by MAb against CD59, percentage of total p24", "setting": "[1]; [4]", "result": "decreased substantially"}, {"measurement": "Capture of HIV-1 by MAb against gp41, percentage of total p24", "setting": "[1]; [4]", "result": "decreased substantially"}, {"measurement": "Decrease in capture of HIV-1 through Thy-1", "setting": "[1]; infected Jurkat cells treated with 20 mM for 1 hr at 37° C, P=0.08", "result": "not statistically significant"}, {"measurement": "Viability and growth of the PHA blasts", "setting": "[2]; 10 mM", "result": "not affected"}, {"measurement": "Cell viability by Trypan Blue exclusion", "setting": "[2]; 10 to 20 mM for 1 hr at 37° C", "result": "without any loss in cell viability"}, {"measurement": "Cell viability", "setting": "[2]; Jurkat cells, adhesion assay", "result": "no effect on cell viability"}, {"measurement": "Viability of LuSIV cells by trypan blue exclusion and proliferation", "setting": "[2]; LuSIV cells", "result": "not affected"}, {"measurement": "Cell growth after treatment", "setting": "[2]; placed back into culture in cholesterol-containing medium", "result": "continued to grow normally"}, {"measurement": "Ca2+ flux responses to anti-CD3 MAb", "setting": "[2]; treated Jurkat cells", "result": "still showed Ca^2+ flux responses"}, {"measurement": "CD4 (MCF)", "setting": "CD4; H9, 20 mM, fixed with 2% paraformaldehyde immediately after treatment", "result": 50, "unit": "MCF"}, {"measurement": "CD4 (MCF)", "setting": "CD4; H9 cells, 20 mM, not fixed before staining", "result": 20.9, "unit": "MCF"}, {"measurement": "CD4 (MCF)", "setting": "CD4; MT2 cells, 20 mM, not fixed before staining", "result": 62.2, "unit": "MCF"}, {"measurement": "CD4 expression after treatment", "setting": "CD4; PHA blasts or any of the cell lines tested", "result": "did not change"}, {"measurement": "CD4 (MCF)", "setting": "CD4; PM1, 20 mM, fixed with 2% paraformaldehyde immediately after treatment", "result": 129, "unit": "MCF"}, {"measurement": "CD4 (MCF)", "setting": "CD4; PM1 cells, 20 mM, not fixed before staining", "result": 85.9, "unit": "MCF"}, {"measurement": "CD4 (MCF)", "setting": "CD4; SupT1, 20 mM, fixed with 2% paraformaldehyde immediately after treatment", "result": 213, "unit": "MCF"}, {"measurement": "CD4 (MCF)", "setting": "CD4; SupT1 cells, 20 mM, not fixed before staining", "result": 188.3, "unit": "MCF"}, {"measurement": "CD4 expression on the cell surface", "setting": "CD4; cells fixed immediately after treatment, before MAb staining", "result": "remained unchanged"}, {"measurement": "Inhibition of infection of PHA blasts by isolate 97.534 (p24 release)", "setting": "[3]", "result": "more than 70%"}]}]}
